# Data from ChEMBL document CHEMBL4680246, “Design, synthesis and biological evaluation of novel O-carbamoyl ferulamide derivatives as multi-target-directed ligands for the treatment of Alzheimer's disease” (Eur J Med Chem, 2020).
# Active and inactive are the calls of the source. The calls are words filed in the database; no cut-off is given here.
# Target: Cholinesterase (Homo sapiens, UniProt P06276)
# Assay: Inhibition of human serum BuChE using acetylcholine iodide as substrate incubated for 15 mins by Ellman's method
# Chain of Cholinesterase (Homo sapiens, UniProt P06276) (P06276 whole entry): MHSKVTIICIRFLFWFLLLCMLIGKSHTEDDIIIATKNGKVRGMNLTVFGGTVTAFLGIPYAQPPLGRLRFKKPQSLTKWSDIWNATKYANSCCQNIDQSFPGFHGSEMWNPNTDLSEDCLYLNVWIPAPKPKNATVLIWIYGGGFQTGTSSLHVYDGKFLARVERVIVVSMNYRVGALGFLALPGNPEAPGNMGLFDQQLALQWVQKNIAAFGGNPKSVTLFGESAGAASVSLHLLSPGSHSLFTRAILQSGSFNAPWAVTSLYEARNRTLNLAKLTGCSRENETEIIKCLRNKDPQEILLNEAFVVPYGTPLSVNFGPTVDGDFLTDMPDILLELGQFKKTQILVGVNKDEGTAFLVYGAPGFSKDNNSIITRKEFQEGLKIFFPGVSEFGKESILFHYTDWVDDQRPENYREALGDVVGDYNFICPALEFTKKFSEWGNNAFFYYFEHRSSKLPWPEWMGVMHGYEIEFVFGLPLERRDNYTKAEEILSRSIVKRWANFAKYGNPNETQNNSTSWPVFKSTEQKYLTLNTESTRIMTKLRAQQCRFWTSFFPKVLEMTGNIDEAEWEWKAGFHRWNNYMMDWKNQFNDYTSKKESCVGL
row,Compound,IC50 [µM]
1,CCN(CC)C(=O)Oc1ccc(/C=C/C(=O)N2CCN(Cc3ccccc3)CC2)cc1OC,10.6
2,CCN(C)C(=O)Oc1ccc(/C=C/C(=O)N2CCC(Cc3ccccc3)CC2)cc1OC,6.5
3,COc1cc(/C=C/C(=O)N2CCc3ccccc3C2)ccc1OC(=O)N(c1ccccc1)c1ccccc1,25.8
4,COc1cc(/C=C/C(=O)N2CCC(Cc3ccccc3)CC2)ccc1OC(=O)N(c1ccccc1)c1ccccc1,36.7
5,CCN(C)C(=O)Oc1ccc(/C=C/C(=O)N(CC)Cc2ccccc2)cc1OC,3.8

# Target: T1, Amine oxidase [flavin-containing] B (Homo sapiens, UniProt P27338)
# T1 sequence (P27338 whole entry): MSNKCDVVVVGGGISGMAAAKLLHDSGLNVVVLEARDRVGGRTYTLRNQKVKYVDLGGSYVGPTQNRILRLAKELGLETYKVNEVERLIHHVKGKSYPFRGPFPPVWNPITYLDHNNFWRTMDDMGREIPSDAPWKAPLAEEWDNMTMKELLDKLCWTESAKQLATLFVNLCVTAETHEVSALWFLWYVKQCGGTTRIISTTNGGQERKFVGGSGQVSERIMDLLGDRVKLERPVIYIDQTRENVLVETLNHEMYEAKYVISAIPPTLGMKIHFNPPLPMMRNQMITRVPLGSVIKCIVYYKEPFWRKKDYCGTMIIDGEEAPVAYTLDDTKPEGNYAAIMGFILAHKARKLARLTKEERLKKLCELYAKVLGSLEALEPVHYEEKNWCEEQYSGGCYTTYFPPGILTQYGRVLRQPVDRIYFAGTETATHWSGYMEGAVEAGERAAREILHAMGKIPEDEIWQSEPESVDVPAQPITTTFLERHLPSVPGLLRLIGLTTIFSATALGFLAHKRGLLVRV
# Assay: Inhibition of recombinant human MAO-B
row,Compound,IC50 [µM]
1,CCN(CC)C(=O)Oc1ccc(/C=C/C(=O)N2CCN(Cc3ccccc3)CC2)cc1OC,23.2
2,CCN(C)C(=O)Oc1ccc(/C=C/C(=O)N2CCC(Cc3ccccc3)CC2)cc1OC,7.52
3,COc1cc(/C=C/C(=O)N2CCc3ccccc3C2)ccc1OC(=O)N(c1ccccc1)c1ccccc1,12.2
4,COc1cc(/C=C/C(=O)N2CCC(Cc3ccccc3)CC2)ccc1OC(=O)N(c1ccccc1)c1ccccc1,13.3
5,CCN(C)C(=O)Oc1ccc(/C=C/C(=O)N(CC)Cc2ccccc2)cc1OC,9.5

# Target: Acetylcholinesterase (Electrophorus electricus, UniProt O42275)
# Sequence (O42275 whole entry): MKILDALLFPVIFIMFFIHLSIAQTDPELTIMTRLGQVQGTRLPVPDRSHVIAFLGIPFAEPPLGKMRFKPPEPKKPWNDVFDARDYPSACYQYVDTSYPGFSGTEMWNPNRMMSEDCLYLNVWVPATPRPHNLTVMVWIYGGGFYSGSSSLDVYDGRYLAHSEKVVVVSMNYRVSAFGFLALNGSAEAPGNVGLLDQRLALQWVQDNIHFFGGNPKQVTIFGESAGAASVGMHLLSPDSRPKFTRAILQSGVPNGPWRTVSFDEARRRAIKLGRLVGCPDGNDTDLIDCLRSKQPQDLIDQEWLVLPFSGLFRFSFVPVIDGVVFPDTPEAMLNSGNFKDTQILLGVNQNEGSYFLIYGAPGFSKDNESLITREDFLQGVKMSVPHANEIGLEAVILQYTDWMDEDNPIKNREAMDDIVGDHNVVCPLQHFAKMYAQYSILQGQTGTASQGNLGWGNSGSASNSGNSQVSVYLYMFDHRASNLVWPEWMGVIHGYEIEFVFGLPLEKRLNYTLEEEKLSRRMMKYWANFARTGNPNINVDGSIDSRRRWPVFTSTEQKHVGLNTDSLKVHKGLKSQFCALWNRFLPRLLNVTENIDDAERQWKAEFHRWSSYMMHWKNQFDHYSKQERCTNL
# Assay: Inhibition of Electrophorus electricus AChE using acetylcholine iodide as substrate incubated for 15 mins by Ellman's method
row,Compound,IC50 [µM]
1,CCN(CC)C(=O)Oc1ccc(/C=C/C(=O)N2CCN(Cc3ccccc3)CC2)cc1OC,19.2
2,CCN(C)C(=O)Oc1ccc(/C=C/C(=O)N2CCC(Cc3ccccc3)CC2)cc1OC,15.1
3,COc1cc(/C=C/C(=O)N2CCc3ccccc3C2)ccc1OC(=O)N(c1ccccc1)c1ccccc1,93.2
4,COc1cc(/C=C/C(=O)N2CCC(Cc3ccccc3)CC2)ccc1OC(=O)N(c1ccccc1)c1ccccc1,88.3
5,CCN(C)C(=O)Oc1ccc(/C=C/C(=O)N(CC)Cc2ccccc2)cc1OC,19.5

# Species on record: Homo sapiens
# Assay: Selectivity index, ratio of IC50 for human erythrocytes Ache to IC50 for human serum BuChe
row,Compound,Ratio IC50
1,CCN(CC)C(=O)Oc1ccc(/C=C/C(=O)N2CCN(Cc3ccccc3)CC2)cc1OC,1.6
2,CCN(C)C(=O)Oc1ccc(/C=C/C(=O)N2CCC(Cc3ccccc3)CC2)cc1OC,2.7
3,COc1cc(/C=C/C(=O)N2CCc3ccccc3C2)ccc1OC(=O)N(c1ccccc1)c1ccccc1,1.2
4,COc1cc(/C=C/C(=O)N2CCC(Cc3ccccc3)CC2)ccc1OC(=O)N(c1ccccc1)c1ccccc1,0.9
5,CCN(C)C(=O)Oc1ccc(/C=C/C(=O)N(CC)Cc2ccccc2)cc1OC,5.4

# Target: Cholinesterase (Equus caballus, UniProt P81908)
# Sequence (P81908 whole entry): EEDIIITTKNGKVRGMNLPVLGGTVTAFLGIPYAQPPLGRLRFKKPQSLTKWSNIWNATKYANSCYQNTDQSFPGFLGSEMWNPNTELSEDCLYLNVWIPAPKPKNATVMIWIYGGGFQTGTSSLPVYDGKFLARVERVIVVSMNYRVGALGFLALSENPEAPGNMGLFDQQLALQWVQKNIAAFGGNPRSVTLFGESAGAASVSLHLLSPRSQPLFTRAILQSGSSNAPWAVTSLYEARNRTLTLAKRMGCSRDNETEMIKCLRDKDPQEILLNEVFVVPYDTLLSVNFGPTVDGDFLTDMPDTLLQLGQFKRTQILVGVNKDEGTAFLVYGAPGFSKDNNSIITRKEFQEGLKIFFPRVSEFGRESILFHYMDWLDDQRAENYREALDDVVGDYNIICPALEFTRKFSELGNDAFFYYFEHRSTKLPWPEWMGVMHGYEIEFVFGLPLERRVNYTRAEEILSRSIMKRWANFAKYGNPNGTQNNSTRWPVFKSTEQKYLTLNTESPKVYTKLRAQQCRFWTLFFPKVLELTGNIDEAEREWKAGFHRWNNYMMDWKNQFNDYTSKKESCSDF
# Assay: Inhibition of equine serum BuChE using BTC as substrate after 15 mins by Ellman's method
row,Compound,IC50 [µM]
1,CCN(CC)C(=O)Oc1ccc(/C=C/C(=O)N2CCN(Cc3ccccc3)CC2)cc1OC,8.7
2,CCN(C)C(=O)Oc1ccc(/C=C/C(=O)N2CCC(Cc3ccccc3)CC2)cc1OC,3.9
3,COc1cc(/C=C/C(=O)N2CCc3ccccc3C2)ccc1OC(=O)N(c1ccccc1)c1ccccc1,23.9
4,COc1cc(/C=C/C(=O)N2CCC(Cc3ccccc3)CC2)ccc1OC(=O)N(c1ccccc1)c1ccccc1,> 100
5,CCN(C)C(=O)Oc1ccc(/C=C/C(=O)N(CC)Cc2ccccc2)cc1OC,1.5

# Species on record: Homo sapiens
# Assay: Selectivity index, ratio of IC50 for recombinant human MAO-A to IC50 for recombinant human MAO-B
row,Compound,Ratio IC50
1,CCN(CC)C(=O)Oc1ccc(/C=C/C(=O)N2CCN(Cc3ccccc3)CC2)cc1OC,0.8
2,CCN(C)C(=O)Oc1ccc(/C=C/C(=O)N2CCC(Cc3ccccc3)CC2)cc1OC,1.1
3,COc1cc(/C=C/C(=O)N2CCc3ccccc3C2)ccc1OC(=O)N(c1ccccc1)c1ccccc1,1.4
4,COc1cc(/C=C/C(=O)N2CCC(Cc3ccccc3)CC2)ccc1OC(=O)N(c1ccccc1)c1ccccc1,2.6
5,CCN(C)C(=O)Oc1ccc(/C=C/C(=O)N(CC)Cc2ccccc2)cc1OC,1.5

# Target: Amyloid-beta precursor protein (Homo sapiens) (UniProt P05067)
# Sequence (P05067 whole entry, the tested form may be a part): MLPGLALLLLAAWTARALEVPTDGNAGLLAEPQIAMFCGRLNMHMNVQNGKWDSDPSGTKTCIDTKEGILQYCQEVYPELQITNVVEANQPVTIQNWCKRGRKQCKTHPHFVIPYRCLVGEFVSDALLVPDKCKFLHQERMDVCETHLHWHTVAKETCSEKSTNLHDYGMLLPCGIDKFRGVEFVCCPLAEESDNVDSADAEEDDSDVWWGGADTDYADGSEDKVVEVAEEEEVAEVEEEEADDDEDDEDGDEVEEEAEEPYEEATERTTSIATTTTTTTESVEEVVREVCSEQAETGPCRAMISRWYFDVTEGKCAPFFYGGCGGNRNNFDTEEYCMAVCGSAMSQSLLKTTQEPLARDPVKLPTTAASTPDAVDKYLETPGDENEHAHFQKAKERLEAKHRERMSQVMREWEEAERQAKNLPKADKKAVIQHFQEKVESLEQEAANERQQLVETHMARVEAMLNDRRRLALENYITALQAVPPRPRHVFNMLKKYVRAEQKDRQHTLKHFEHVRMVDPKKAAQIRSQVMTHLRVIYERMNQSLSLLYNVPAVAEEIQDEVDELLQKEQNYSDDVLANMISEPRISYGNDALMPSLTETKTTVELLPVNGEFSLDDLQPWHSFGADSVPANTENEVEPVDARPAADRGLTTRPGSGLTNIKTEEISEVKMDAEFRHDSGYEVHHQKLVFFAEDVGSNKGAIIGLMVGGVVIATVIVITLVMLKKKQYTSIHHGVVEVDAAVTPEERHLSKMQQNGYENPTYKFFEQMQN
# Assay: Inhibition of self-induced Amyloid beta (1 to 42 residues) (unknown origin) aggregation at 25 uM measured after 24 hrs by thioflavin T-based fluorimetric assay relative to control
row,Compound,inhibition [%]
1,CCN(C)C(=O)Oc1ccc(/C=C/C(=O)N2CCC(Cc3ccccc3)CC2)cc1OC,53.7
2,CCN(C)C(=O)Oc1ccc(/C=C/C(=O)N(CC)Cc2ccccc2)cc1OC,50.7

# Target: Acetylcholinesterase (Homo sapiens, UniProt P22303)
# Sequence (P22303 whole entry): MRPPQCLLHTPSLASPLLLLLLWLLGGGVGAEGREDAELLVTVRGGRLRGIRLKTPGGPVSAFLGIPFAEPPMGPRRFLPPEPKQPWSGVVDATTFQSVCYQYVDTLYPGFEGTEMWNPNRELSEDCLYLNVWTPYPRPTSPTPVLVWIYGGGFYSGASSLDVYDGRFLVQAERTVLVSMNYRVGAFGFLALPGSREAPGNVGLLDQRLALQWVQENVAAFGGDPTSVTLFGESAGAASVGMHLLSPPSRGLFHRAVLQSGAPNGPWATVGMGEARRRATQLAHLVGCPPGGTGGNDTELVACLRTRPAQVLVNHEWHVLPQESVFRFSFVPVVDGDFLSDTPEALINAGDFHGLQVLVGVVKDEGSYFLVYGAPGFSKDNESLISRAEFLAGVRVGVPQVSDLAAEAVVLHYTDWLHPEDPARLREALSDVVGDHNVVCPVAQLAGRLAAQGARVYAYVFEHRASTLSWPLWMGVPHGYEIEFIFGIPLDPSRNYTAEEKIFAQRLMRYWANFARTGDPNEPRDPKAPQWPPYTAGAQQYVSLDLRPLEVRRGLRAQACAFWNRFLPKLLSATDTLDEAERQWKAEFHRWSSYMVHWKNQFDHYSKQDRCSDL
# Assay: Inhibition of human erythrocytes AChE using acetylcholine iodide as substrate incubated for 15 mins by Ellman's method
row,Compound,IC50 [µM]
1,CCN(CC)C(=O)Oc1ccc(/C=C/C(=O)N2CCN(Cc3ccccc3)CC2)cc1OC,16.8
2,CCN(C)C(=O)Oc1ccc(/C=C/C(=O)N2CCC(Cc3ccccc3)CC2)cc1OC,17.3
3,COc1cc(/C=C/C(=O)N2CCc3ccccc3C2)ccc1OC(=O)N(c1ccccc1)c1ccccc1,30.5
4,COc1cc(/C=C/C(=O)N2CCC(Cc3ccccc3)CC2)ccc1OC(=O)N(c1ccccc1)c1ccccc1,32.1
5,CCN(C)C(=O)Oc1ccc(/C=C/C(=O)N(CC)Cc2ccccc2)cc1OC,20.7

# Target: Cholinesterase (Equus caballus) (UniProt P81908)
# Sequence (P81908 whole entry): as the sequence (P81908 whole entry) above
# Assay: Inhibition of equine serum BuChE at 25 uM using BTC as substrate after 15 mins by Ellman's method relative to control
row,Compound,inhibition [%]
1,COc1cc(/C=C/C(=O)N2CCC(Cc3ccccc3)CC2)ccc1OC(=O)N(c1ccccc1)c1ccccc1,6.6

# System: not listed separately
# Assay: Selectivity index, ratio of IC50 for Electrophorus electricus AChE to IC50 for equine serum BuChE
row,Compound,Ratio IC50
1,CCN(CC)C(=O)Oc1ccc(/C=C/C(=O)N2CCN(Cc3ccccc3)CC2)cc1OC,2.2
2,CCN(C)C(=O)Oc1ccc(/C=C/C(=O)N2CCC(Cc3ccccc3)CC2)cc1OC,3.9
3,CCN(C)C(=O)Oc1ccc(/C=C/C(=O)N(CC)Cc2ccccc2)cc1OC,13

# Target: T2, Amine oxidase [flavin-containing] A (Homo sapiens, UniProt P21397)
# T2 sequence (P21397 whole entry): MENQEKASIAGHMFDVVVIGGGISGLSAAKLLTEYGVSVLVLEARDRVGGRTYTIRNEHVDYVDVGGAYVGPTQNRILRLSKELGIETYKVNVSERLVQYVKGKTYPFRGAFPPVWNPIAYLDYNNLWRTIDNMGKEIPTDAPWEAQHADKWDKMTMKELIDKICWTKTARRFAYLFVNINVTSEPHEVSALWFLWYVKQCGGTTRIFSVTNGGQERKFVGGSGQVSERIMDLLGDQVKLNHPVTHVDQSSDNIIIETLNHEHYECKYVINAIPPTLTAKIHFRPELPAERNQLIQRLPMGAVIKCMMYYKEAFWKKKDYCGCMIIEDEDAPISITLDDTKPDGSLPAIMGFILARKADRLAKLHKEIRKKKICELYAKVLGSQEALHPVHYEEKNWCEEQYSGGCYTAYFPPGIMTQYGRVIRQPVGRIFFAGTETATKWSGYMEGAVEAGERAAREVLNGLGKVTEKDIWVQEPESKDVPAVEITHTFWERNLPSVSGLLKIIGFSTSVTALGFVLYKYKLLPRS
# Assay: Inhibition of recombinant human MAO-A
row,Compound,IC50 [µM]
1,CCN(CC)C(=O)Oc1ccc(/C=C/C(=O)N2CCN(Cc3ccccc3)CC2)cc1OC,19.7
2,CCN(C)C(=O)Oc1ccc(/C=C/C(=O)N2CCC(Cc3ccccc3)CC2)cc1OC,7.9
3,COc1cc(/C=C/C(=O)N2CCc3ccccc3C2)ccc1OC(=O)N(c1ccccc1)c1ccccc1,16.9
4,COc1cc(/C=C/C(=O)N2CCC(Cc3ccccc3)CC2)ccc1OC(=O)N(c1ccccc1)c1ccccc1,34.6
5,CCN(C)C(=O)Oc1ccc(/C=C/C(=O)N(CC)Cc2ccccc2)cc1OC,14.1

# System: Mus musculus
# Assay: Improvement in cognitive impairment in scopolamine-induced mouse model of amnesia assessed as increase in spontaneous alteration at 10 mg/kg by Y-maze test
# Format: functional, organism-based
row,Compound,Activity
1,CC(=O)OCC[N+](C)(C)C,inactive
